The source of these data is article PMC7501440 (Heliyon, 2020).

Molecules are shown by their SMILES. Like-named read-outs stand apart in the source and are kept apart here.

Assay [1] deals with T1, Human acetycholinesterase (hAChE) (Homo sapiens, UniProt P22303).
T1 construct: purchased Sigma
The assay is described as follows: hAChE enzyme kinetics, Lineweaver-Burk and secondary plots. Type of assay: biochemical. As to conditions: for Vmax: hAChE in presence of inhibitor, without inhibitor 0.34 ± 0.01; for Inhibition type: hAChE, Lineweaver-Burk plots. The procedure: (§1) Human acetycholinesterase (hAChE) activities were determined with a slight modification of Ellman's colorimetric protocol. […] The bioactivity was determined by evaluating the hydrolysis rate of acetylthiocholine iodide (ATCI, 0.1 mM) with the final volume of 300 μL with a phosphate buffer of 180 μL of 100 mM, pH 7.3 and 2 mM DTNB 0.09U of hAChE (Sigma) were applied to this solution and pre-incubated for 45 min at room temperature. The 96-well microplate was read in a microplate reader (Ensight Multimode Reader, Perkin Elmer) at 412 nm after adding DTNB and ATCI. The enzyme kinetic parameters were determined by incubating the substrate at multiple concentrations with or without test inhibitor by double-reciprocal (Lineweaver- Burk) plots in 0.09U of hAChE. From the Lineweaver-Burk plots, the inhibition mechanisms were measured graphically. The kinetics were performed using a series of concentrations of 4a to 4e and substrate AChI at 412 nm. The quantitative datas were expressed as mean ± SD results from three independent experiments. GraphPad Prism version 6.01 (GraphPad Software Inc., San Diego, USA) was used for regression analysis to calculate the IC50 values and the enzyme kinetic parameters (Km, Vmax). The IC50 and enzyme kinetics values (Vmax and Km) were calculated by this formula IC50 Y = min + max-min/1+(X/EC50)^−Hillslops. . Vmax and Km Y = Vmax∗X/(Km + X).
(§2) An evaluation of the therapeutic potential in the treatment of AD of target compounds 4a, 4b, 4c, 4d and 4e were measured for AChE inhibitory activity using the Ellman method. To find the inhibitory effects, the test compounds were incubated with multiple concentrations of human AChE. […] These compounds were designed from the trans-tephrostachin. It was isolated and structuraly characterized from Tephrosia purpurea in our previous studies. To investigate the mechanism of trans-tephrostachin derivatives against AChE, kinetic studies were conducted for all compounds. Such plots presented a secondary plot of Km/Vmax versus test compound concentrations for the Km and Vmax. […] Compound 4a is a trans-tephrostachin which was isolated and structurally characterized previously.

The target of assay [2] is T1, Human acetycholinesterase (hAChE). Put plainly: hAChE inhibition assay, modified Ellman's colorimetric protocol. The assay is classed as biochemical. The procedure:
as §1, §2
A general note: DTNB colorimetry detects thiols as they appear.

A further assay has as its system AChE. Details: method as in PMID 17962731. As to conditions: AChE inhibition; cited from earlier work.
The mark [3] stands for this setting: human AChE, secondary plot of Km/Vmax versus compound concentration, read-out: Ki.
[4] abbreviates: human AChE, Ellman method, average of three sets of assays, read-out: IC50 Concentration.

One may read the Ki as a dissociation constant, usually derived from enzyme kinetics or from competition with a known ligand.

T1 sequence (P22303 32-614): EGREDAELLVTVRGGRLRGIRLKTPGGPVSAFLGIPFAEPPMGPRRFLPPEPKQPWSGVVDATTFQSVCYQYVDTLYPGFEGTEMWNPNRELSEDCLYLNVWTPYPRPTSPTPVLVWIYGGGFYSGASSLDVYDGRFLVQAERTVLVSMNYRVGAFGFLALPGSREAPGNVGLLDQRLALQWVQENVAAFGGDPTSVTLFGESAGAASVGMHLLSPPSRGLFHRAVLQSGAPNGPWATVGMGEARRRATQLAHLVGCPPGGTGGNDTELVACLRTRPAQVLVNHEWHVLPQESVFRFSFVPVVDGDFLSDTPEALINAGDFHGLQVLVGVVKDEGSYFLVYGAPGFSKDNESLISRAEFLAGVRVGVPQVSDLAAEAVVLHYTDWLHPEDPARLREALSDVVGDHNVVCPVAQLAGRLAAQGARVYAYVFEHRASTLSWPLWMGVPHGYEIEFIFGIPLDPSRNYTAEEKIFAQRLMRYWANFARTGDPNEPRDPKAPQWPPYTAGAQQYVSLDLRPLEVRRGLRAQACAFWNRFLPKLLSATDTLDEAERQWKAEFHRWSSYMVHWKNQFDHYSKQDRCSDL

Turning to `COc1cc(OC)c2c(=O)cc(-c3ccccc3)oc2c1/C=C/C(C)(C)O` [Compound 4a, (E)-8-(3-hydroxy-3-methylbut-1-en-1-yl)-5,7-dimethoxy-2-phenyl-4H-chromen-4-one], in assay [1], the Vmax was 0.13 ± 0.08 and the Inhibition type result is “mixed type inhibition”. Moreover, the inhibition constant Ki in assay [1] (setting [3]) came to 29.3 ± 7.2 µM. Further, the IC50 in assay [2] (setting [4]) is 35 ± 1.2 µM.
With `CCOc1cc(OCC)c2c(=O)cc(-c3ccccc3)oc2c1/C=C/C(C)(C)O` [Compound 4b, (E)-5,7-diethoxy-8-(3-hydroxy-3-methylbut-1-en-1-yl)-2-phenyl-4H-chromen-4-one], in assay [1], the Vmax came to 0.34 ± 0.01 and the Inhibition type result is on record as “Competitive inhibition”. Further, the Ki in assay [1] (setting [3]) is 206 ± 12 µM. Moreover, in assay [2] (setting [4]), the IC50 is 35.6 ± 2.8 µM.
Consider `CC(C)(O)/C=C/c1c(OC(=O)c2ccccc2)cc(OC(=O)c2ccccc2)c2c(=O)cc(-c3ccccc3)oc12` [Compound 4c, (E)-8-(3-hydroxy-3-methylbut-1-en-1-yl)-4-oxo-2-phenyl-4H-chromene-5,7-diyl dibenzoate], for which, in assay [1], the Vmax was determined as 0.14 ± 0.1 and the Inhibition type entry was “mixed type inhibition”. Also, the inhibition constant (Ki) in assay [1] (setting [3]) is 46.4 ± 9.5 µM. In assay [2] (setting [4]), the IC50 came out at 10.6 ± 2.8 µM.
For the compound `CC(C)(O)/C=C/c1c(OC(=O)c2ccc([N+](=O)[O-])cc2)cc(OC(=O)c2ccc([N+](=O)[O-])cc2)c2c(=O)cc(-c3ccccc3)oc12` [Compound 4d, (E)-8-(3-hydroxy-3-methylbut-1-en-1-yl)-4-oxo-2-phenyl-4H-chromene-5,7-diyl bis(4-nitrobenzoate)], in assay [1], the inhibition constant (Ki) came to 8.25 ± 1.7 µM, the Vmax was determined as 0.15 ± 0.01 and the Inhibition type result was “mixed type inhibition”. In addition, the IC50 in assay [2] is 10.3 µM.
Turning to `CC(=O)Oc1cc(OC(C)=O)c2c(=O)cc(-c3ccccc3)oc2c1/C=C/C(C)(C)O` [Compound 4e, (E)-8-(3-hydroxy-3-methylbut-1-en-1-yl)-4-oxo-2-phenyl-4H-chromene-5,7-diyl diacetate], in assay [1], the Vmax came to 0.36 ± 0.2 and the Inhibition type result was “Competitive inhibition”. Further, the Ki in assay [1] (setting [3]) amounted to 198 ± 10.1 µM. Moreover, the IC50 in assay [2] (setting [4]) was 28.1 ± 2.1 µM.
Consider `C[n+]1c2n(c(=O)c3ccccc31)CCc1c-2[nH]c2ccccc12` [dehydroevodiamine], for which the IC50 in the assay on AChE was 37.8 µM.
For the compound `O=c1c(O)c(-c2ccc(O)c(O)c2)oc2cc(O)cc(O)c12` [quercetin], the IC50 in the assay on AChE was […].
With `C[C@@H]1O[C@@H](Oc2c(-c3ccc(O)c(O)c3)oc3cc(O)cc(O)c3c2=O)[C@H](O)[C@H](O)[C@H]1O` [quercitrin], in the assay with AChE, the IC50 was 66.9 µM.
On to `O=C(/C=C/c1ccc(O)cc1)OC[C@H]1O[C@@H](Oc2c(-c3ccc(O)cc3)oc3cc(O)cc(O)c3c2=O)[C@H](O)[C@@H](O)[C@@H]1O` [tiliroside], for which the IC50 with AChE was 23.5 µM.
